# Test results taken from US20220387370A1, “METHODS OF REDUCING NEUROLOGICAL DAMAGE IN WILSON DISEASE PATIENTS” (priority 2019, published 2022).
# Entries after “also recorded” stand apart in the source; their conditions may differ.
# How the values were obtained:
# EA.hy926 cells [1] = assay: Cellular copper content (ICP-OES), EA.hy926; assay type: cell-based, human
# Source text: (§1) Afterwards, cells were trypsinized and counted.
# EA.hy926 cells [2] = assay: Cu-albumin cell toxicity, CellTiter-Glo, EA.hy926; assay type: cell-based, human
# Experimental: (§2) SHSY5Y (human neuroblastoma), U87MG (human astrocytoma), EA.hy926 (human endothelium) and HepG2 (human hepatocellular carcinoma) cells were from ATCC (Wesel, Germany) and were cultured in Dulbecco's Modified Eagle Medium (DMEM) supplemented with 10% FCS (Biochrom, Berlin, Germany) and 1% antibiotic-antimycotic (Life Technologies, Carlsbad, USA). All cells were maintained at 37° C. in a humidified atmosphere with 5% CO2.
# EA.hy926 cells [3] = assay: High-resolution respirometry, EA.hy926; assay type: cell-based, human; conditions: EA.hy926, Cu-albumin-treated, vs Cu-albumin alone
# Experimental: (§3) Oxygen consumption was assessed by high-resolution respirometry (HRR) using the Oxygraph-2k and DatLab 7.0 (Oroboros Instruments GmbH, Innsbruck, Austria) as described previously (Pesta, D. and E. Gnaiger, Methods Mol Biol, 2012. 810: p. 25-58). Per chamber, 1.5-2×10^6 living cells were supplied in 2 mL of MiR05 buffer (0.5 mM EGTA, 3 mM MgCl2, 60 mM lactobionic acid, 20 mM taurine, 10 mM KH2PO4, 20 mM HEPES, 110 mM sucrose, 1 g/L albumin, pH 7.1) and routine respiration was measured. Addition of 2.5 μM oligomycin (inhibitor of the FOF1-ATPase) enabled the measurement of leak respiration and stepwise addition of CCCP (1 μL steps from 1 mM stock solution) allowed the determination of the maximum oxygen flux and thereby the capacity of the electron transport system (ETS). The oxygen flux was baseline-corrected for non-mitochondrial oxygen consuming processes (ROX) by the addition of 2.5 μM of the complex III-inhibitor antimycin A.
# [4] = tested on: HepG2, EA.hy926, U87MG and SHSY5Y cells; assay: Cu-albumin cell toxicity, CellTiter-Glo, all investigated cell lines; assay type: cell-based, human; conditions: 750 μM chelator, 250 μM albumin, copper 250 to 2500 μM, 24 h
# Experimental: as §2
# [5] = target: Cu-albumin complex (bovine serum albumin) (Bos taurus, UniProt P02769); conditions: 750 μM copper, 250 μM albumin, molar ratio Cu-albumin-chelator 3:1:3
# Chain of Cu-albumin complex (bovine serum albumin) (P02769 25-607, one chain of several): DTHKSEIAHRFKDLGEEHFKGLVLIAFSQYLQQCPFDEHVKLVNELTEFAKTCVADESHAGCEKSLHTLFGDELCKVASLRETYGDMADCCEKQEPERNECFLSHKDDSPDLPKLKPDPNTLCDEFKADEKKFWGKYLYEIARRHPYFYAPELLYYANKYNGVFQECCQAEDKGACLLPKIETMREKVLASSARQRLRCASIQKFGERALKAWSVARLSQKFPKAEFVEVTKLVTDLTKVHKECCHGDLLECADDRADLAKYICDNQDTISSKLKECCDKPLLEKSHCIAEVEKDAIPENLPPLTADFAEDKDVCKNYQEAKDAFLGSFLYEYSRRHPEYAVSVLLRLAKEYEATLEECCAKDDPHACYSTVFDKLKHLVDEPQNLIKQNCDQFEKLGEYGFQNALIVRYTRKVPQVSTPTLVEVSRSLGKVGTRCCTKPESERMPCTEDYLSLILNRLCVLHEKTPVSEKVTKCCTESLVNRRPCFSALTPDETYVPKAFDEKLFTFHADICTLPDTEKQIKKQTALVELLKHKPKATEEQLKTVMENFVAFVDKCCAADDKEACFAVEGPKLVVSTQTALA
# Experimental: 10 mg of fatty acid free bovine serum albumin (subsequently referred to as albumin, Carl Roth, Karlsruhe, Germany) were resuspended in 10 mM Tris-HCl buffer (pH 7.4) and mixed with 45 μL of 10 mM copper chloride. […] Briefly, 50 μL of each fraction were mixed with 10 μL 0.2% NQS, 10 μL of 0.2 M sodium phosphate buffer (pH 12.0) and 30 μL ddH2O in a clear 96-well plate. The samples were incubated for 20 min and absorbance was measured at 452 nm.
# EA.hy926 and U87MG cells = assay: Electron microscopy of mitochondrial structure; assay type: cell-based, human; conditions: electron micrographs, co-treatment with chelator
# Source text: Electron microscopy of cells was done as previously described ([…]., et al., Cell Mol Gastroenterol Hepatol, 2018. 7(3): p. 571-596) on a 1200EX electron microscope (JEOL, […], Japan) at 60 kv. Pictures were taken with a […] digital camera (Olympus, Hamburg, Germany) and processed by the iTEM software package (analySIS FIVE, Olympus, Hamburg, Germany).
# SHSY5Y cells = assay: Cellular copper content (ICP-OES), SHSY5Y; assay type: cell-based, human; conditions: 750 μM copper, 250 μM albumin, 750 μM chelator, vs Cu-albumin alone
# Source text: as §1
# PBCEC monolayers [6] = assay: TEER and capacitance of PBCEC monolayers (endothelial blood-brain barrier model); assay type: cell-based, porcine
# Source text: (§4) For transepithelial resistance (TEER) experiments (Srinivasan, B., et al., J Lab Autom, 2015. 20(2): p. 107-26), cryopreserved primary porcine brain capillary endothelial cells (PBCECs) were thawed and seeded either on rat tail collagen-coated 96-well plates for cytotoxicity testing using the Neutral red assay (Repetto, G., A. del Peso, and J. L. Zurita, Nat Protoc, 2008. 3(7): p. 1125-31) or Transwell® inserts (area: 1.12 cm^2, pore size: 0.4 μm: Corning, N.Y., USA) for barrier integrity studies. Cells were cultured for 48 hours in Earle's Medium 199 supplemented with 10% FCS, 50 U penicillin/mL, 50 μg/mL streptomycin, 100 μg/mL gentamycin and 0.7 mM I-glutamine and maintained at 37° C. in a humidified atmosphere with 5% CO2. […] TEER and capacitance values were continuously monitored over 48 h using a CellZscope device (nanoAnalytics, Münster, Germany). Only PBCEC monolayers with initial TEER values >600Ωcm^2 and capacitance values between 0.45 and 0.6 μF/cm^2 were used for permeability studies (Bornhorst, J., et al., J Biol Chem, 2012. 287(21): p. 17140-51). The barrier integrity was calculated by normalizing the TEER values to the respective start values.
# U87MG cells [7] = conditions: U87MG cells subjected to respirometry (FIG. 6A), non-toxic Cu-albumin setting
# Source text: as §1
# PBCEC monolayers [8] = assay: Copper in the basolateral compartment of the Transwell PBCEC model (ICP-MS/MS); assay type: cell-based, porcine; conditions: 250 μM copper and 83.3 μM albumin, 250 μM chelator, after 48 h
# Source text: as §4
# U87MG cells [9] = conditions: 750 μM chelator
# Experimental: as §2
# HepG2 cells = assay: Cellular copper content (ICP-OES), HepG2; assay type: cell-based, human; conditions: 750 μM copper, 250 μM albumin, 750 μM chelator, vs Cu-albumin alone
# Source text: as §1
# patients with WD = conditions: cited from earlier work
# [10] = tested on: HepG2, EA.hy926, U87MG and SHSY5Y cells; conditions: 750 μM copper, 250 μM albumin, 750 μM chelator
# Experimental: 2×10^4 cells were seeded into each well of a 96-well plate and incubated overnight. […] Cell toxicity was either determined by CellTiter-Glo® assay (Promega, Madison, USA) or Trypan blue exclusion test.
# Afterwards, cells were trypsinized and counted. Cell viability was determined by Trypan blue exclusion test.
# U87MG cells [11] = assay: High-resolution respirometry, U87MG; assay type: cell-based, human; conditions: Cu-albumin-treated, vs Cu-albumin alone
# Experimental: as §3
structure (smiles),measurement,setting,value
"C[N+](C)(C)CCO.C[N+](C)(C)CCO.[SH-].[SH-].[S]=[Mo]=[S] [ALXN1840, bis-choline tetrathiomolybdate]",cellular copper content,"EA.hy926 cells [1]; EA.hy926, 750 μM copper, 250 μM albumin, 750 μM chelator, vs Cu-albumin alone",significantly decreased the copper content; also recorded: (significantly) lower copper content
same,cellular copper content,"EA.hy926 cells [1]; EA.hy926 cells subjected to respirometry (FIG. 6A), non-toxic Cu-albumin setting",significantly lower
same,CellTiterGlo-assessed cell viability / Cu-albumin toxicity,"EA.hy926 cells [2]; EA.hy926, 750 μM chelator",protected
same,CellTiterGlo-assessed cell viability / Cu-albumin toxicity,"EA.hy926 cells [2]; EA.hy926, low dose of chelator (250 μM)",partially rescued
same,mitochondrial respiration (ETS),EA.hy926 cells [3],significantly increased
same,respiratory control ratio E/L (ETS to leak respiration),EA.hy926 cells [3],significantly increased
same,CellTiterGlo-assessed cell viability / Cu-albumin toxicity,[4],fully avoided such toxicity up to a Cu-albumin ratio of 4:1
same,"distribution of copper, albumin and chelator over gel filtration fractions",[5],"one prominent gel filtration peak appeared; also recorded: albumin, molybdenum and copper were present in the same fractions"
same,Cu-albumin-induced alterations of mitochondrial structure,EA.hy926 and U87MG cells,partially avoided these structural abnormalities; also recorded: partially reversed
same,cellular copper content,SHSY5Y cells,this effect was not present
same,transepithelial electrical resistance (TEER),"PBCEC monolayers [6]; 250 μM copper and 83.3 μM albumin, 250 μM chelator, 48 h",stable TEER values for 48 h; also recorded: could be rescued
same,capacitance values,PBCEC monolayers [6]; Cu-albumin treatment in the absence or presence of chelator,unaffected
same,cellular copper content,U87MG cells [7],significantly lower
same,copper in the basolateral compartment (copper influx),PBCEC monolayers [8],fully avoided; also recorded: significantly lower amount of copper
same,CellTiterGlo-assessed cell viability / Cu-albumin toxicity,U87MG cells [9],protected
same,cellular copper content,HepG2 cells,highly similar cellular copper contents; also recorded: this effect was not present
same,reduction of mean serum non-ceruloplasmin-bound Cu (NCC),"patients with WD; at Week 24 compared with baseline, 28 patients with WD",72%
same,patients with reversible liver function test elevations,"patients with WD; mild to moderate, asymptomatic, normalized with dose reduction or interruption",39%
same,tolerability,patients with WD; most AEs mild (Grade 1) to moderate (Grade 2),generally well-tolerated
same,paradoxical neurological worsening,patients with WD; upon treatment initiation,No paradoxical neurological worsening was observed
same,Trypan blue-assessed cell viability / copper-related cell toxicity,[10],cellular viability was significantly maintained; also recorded: protected all cell lines
same,respiratory control ratio E/L (ETS to leak respiration),U87MG cells [11],tendentiously; also recorded: less pronounced
